According to ChEMBL document CHEMBL1154903, “Cembranoids from the octocoral Sarcophyton ehrenbergi” (J Nat Prod, 2010):
The source made the active and inactive calls. No cut-off for these calls is given here.

Columns and labels:
P388 = experiment: Cytotoxicity against mouse P388 cells by MTT assay; assay type: functional, cell-based
HT-29 = experiment: Cytotoxicity against human HT-29 cells by MTT assay; assay type: functional, cell-based
HEL = experiment: Cytotoxicity against HEL cells by MTT assay; assay type: cell-based; settings: Homo sapiens
Human betaherpesvirus 5 = experiment: Antiviral activity against human cytomegalovirus infected HEL cells after 7 days by; assay type: functional, organism-based; settings: Human betaherpesvirus 5, HEL, 168 h
Salmonella enterica = experiment: Antibacterial activity against Salmonella enteritidis ATCC 13076 at 250 ug/ml by disk diffusion method; assay type: functional, organism-based; settings: Salmonella enterica subsp. enterica serovar Enteritidis

Row | IC50 (Human betaherpesvirus 5) [µM] | Compound | IC50 (P388) [µg/mL] | IC50 (HT-29) [µg/mL] | IC50 (HEL) [µg/mL] | Activity (Salmonella enterica)
1 | 24.8 | COC(C)(C)/C1=C/C=C(\C)CC[C@@H]2O[C@@]2(C)CC/C=C(/C(=O)O)CC1 [EHRENBEROXIDE A] | > 50 | > 50 | > 50 | inactive
2 | 4.7 | C/C1=C\C=C(\C(C)C)CC[C@@]2(C)O[C@H](C1)C[C@@](C)(O)CC[C@@H]2O [EHRENBEROXIDE B] | > 50 | > 50 | > 50 | inactive
3 | 5.8 | COC(=O)/C1=C/CC/C(C)=C/[C@@H]2OCC(C)=C2CC[C@@]2(C)O[C@@H]2CC1 [LOBOPHYNIN C] | > 50 | > 50 | > 50 | inactive
